Measured values from publication PMC12396409, “Screening and hit evaluation of a microbial metabolite library against the pathogenic Plasmodium falciparum and Toxoplasma gondii parasites” (International Journal for Parasitology: Drugs and Drug …, 2025).
Like-named read-outs stand apart in the source and are kept apart here.

Tests used:
[1] = test system: P. falciparum 3D7 parasites; assay: P. falciparum growth inhibition assay, 1-cycle (72 h treatment), SYBR DNA staining (library screen at 2 μg/mL and dose-response); format: cell-based, Plasmodium falciparum; conditions: for activity at 2 µg/mL: Plasmodium falciparum, 3D7, 72 h
[2] = test system: P. falciparum 3D7 parasites; assay: P. falciparum growth inhibition assay, 2-cycle (120 h treatment), delayed-death screen and dose-response; format: cell-based, Plasmodium falciparum; conditions: for activity at 2 µg/mL: Plasmodium falciparum, 3D7, 120 h
[3] = test system: T. gondii RH strain (RH-Tub-eYFP) tachyzoites; assay: microbe, parasite or virus in culture; format: cell-based, Toxoplasma gondii; conditions: 72 h; for percent parasite growth at 2 µg/mL: Toxoplasma gondii
[4] = T. gondii, 2 μg/mL, values are growth (% of control)
[5] = library screen at 2 μg/mL, 72 h, % growth, replicate 1
[6] = library screen at 2 μg/mL, 72 h, % growth, replicate 2
[7] = library screen at 2 μg/mL, 120 h, % growth, replicate 1
[8] = library screen at 2 μg/mL, 120 h, % growth, replicate 2
[9] = library screen at 2 μg/mL, % growth, replicate 1
[10] = library screen at 2 μg/mL, % growth, replicate 2
[11] = P. falciparum, 72 h, parasite screen 2 μg/mL, % growth, replicate 1
[12] = P. falciparum, 72 h, parasite screen 2 μg/mL, % growth, replicate 2
[13] = P. falciparum, 120 h, parasite screen 2 μg/mL, % growth, replicate 1
[14] = P. falciparum, 120 h, parasite screen 2 μg/mL, % growth, replicate 2
[15] = T. gondii, parasite screen 2 μg/mL, % growth, replicate 1
[16] = T. gondii, parasite screen 2 μg/mL, % growth, replicate 2

## COc1cc2c(oc(=O)c3cc(C)cc(OC)c32)c2c([C@@H]3O[C@H](C)[C@H](O)[C@@](C)(O)[C@H]3O)ccc(O)c12 [Chrysomycin B]
[1]; P. falciparum, 72 h, screen at 2 μg/mL, replicate 1, read-out: Pf_72h_%Growth_Rep1
  activity at 2 µg/mL: 67.5%
[1]; P. falciparum, 72 h, screen at 2 μg/mL, replicate 2, read-out: Pf_72h_%Growth_Rep2
  activity at 2 µg/mL: 64.1%
[2]; P. falciparum, 120 h, screen at 2 μg/mL, replicate 1, read-out: Pf_120h_%Growth_Rep1
  activity at 2 µg/mL: 73%
[2]; P. falciparum, 120 h, screen at 2 μg/mL, replicate 2, read-out: Pf_120h_%Growth_Rep2
  activity at 2 µg/mL: 73.7%
[3]; T. gondii, 2 μg/mL, mean of both replicates, growth (% of control)
  Mean: 21.06
[3]; [4]
  Replicate 1: 25.01
  Replicate 2: 17.10
[3]; T. gondii, screen at 2 μg/mL, replicate 1, read-out: Tg_72h_%Growth_Rep1
  percent parasite growth at 2 µg/mL: 25%
[3]; T. gondii, screen at 2 μg/mL, replicate 2, read-out: Tg_72h_%Growth_Rep2
  percent parasite growth at 2 µg/mL: 17.1%

## C=C1CC[C@H]2C(C)(C)CCC[C@]2(C)[C@H]1C[C@@]12C[C@H]3C(=O)N4CCC=C4C(=O)N3[C@@H]1Nc1ccccc12 [Drimentine B]
[1]; [5]
  Pf_72h_%Growth_Rep1: 74.87%
[1]; [6]
  Pf_72h_%Growth_Rep2: 73.00%
[2]; [7]
  Pf_120h_%Growth_Rep1: 84.09%
[2]; [8]
  Pf_120h_%Growth_Rep2: 80.10%
[3]; [9]
  Tg_72h_%Growth_Rep1: 108.85%
[3]; [10]
  Tg_72h_%Growth_Rep2: 84.36%

## C=C[C@]1(C)C[C@@H](O)[C@]2(C)[C@H](C)CC[C@]3(CCC(=O)[C@H]32)[C@@H](C)[C@@H]1O [BIA-M1333]
[1]; P. falciparum 3D7, 72 h, parasite screen at 2 μg/mL, % growth, replicate 1
  Pf_72h_%Growth_Rep1: 79.79%
[1]; P. falciparum 3D7, 72 h, parasite screen at 2 μg/mL, % growth, replicate 2
  Pf_72h_%Growth_Rep2: 96.77%
[2]; P. falciparum 3D7, 120 h, parasite screen at 2 μg/mL, % growth, replicate 1
  Pf_120h_%Growth_Rep1: 84.29%
[2]; P. falciparum 3D7, 120 h, parasite screen at 2 μg/mL, % growth, replicate 2
  Pf_120h_%Growth_Rep2: 105.61%
[3]; T. gondii, parasite screen at 2 μg/mL, % growth, replicate 1
  Tg_72h_%Growth_Rep1: 107.76%
[3]; T. gondii, parasite screen at 2 μg/mL, % growth, replicate 2
  Tg_72h_%Growth_Rep2: 90.41%

## CC[C@H]1CCC[C@H](O)[C@@H](C)C(=O)C2=C[C@@H]3[C@@H](C=C(C)[C@@H]4C[C@@H](O[C@@H]5O[C@@H](C)[C@H](OC)[C@@H](OC)[C@H]5OC)C[C@@H]34)[C@@H]2CC(=O)O1 [Spinosyn D 17-pseudoaglycone]
[1]; [11]
  Pf_72h_%Growth_Rep1: 18.47%
[1]; [12]
  Pf_72h_%Growth_Rep2: 12.37%
[2]; [13]
  Pf_120h_%Growth_Rep1: 8.86%
[2]; [14]
  Pf_120h_%Growth_Rep2: 19.25%
[3]; [15]
  Tg_72h_%Growth_Rep1: 111.08%
[3]; [16]
  Tg_72h_%Growth_Rep2: 100.61%

## CO/C1=C\C(C)=C\C(C)C(O)C(C)C/C(C)=C/C=C/C(OC)C(C(C)C(O)C(C)C2(O)CC(OC(=O)/C=C/C(=O)O)C(C)C(C(C)C)O2)OC1=O (stereo not drawn) [Bafilomycin C1]
[1]; [5]
  Pf_72h_%Growth_Rep1: 1.92%
[1]; [6]
  Pf_72h_%Growth_Rep2: 0.47%
[2]; [7]
  Pf_120h_%Growth_Rep1: 3.53%
[2]; [8]
  Pf_120h_%Growth_Rep2: -2.55%
[3]; [9]
  Tg_72h_%Growth_Rep1: -0.73%
[3]; [10]
  Tg_72h_%Growth_Rep2: -0.13%

## Cc1cc(O)c(C=O)c2c1C(=O)Oc1c(CO)c(O)c3c(c1O2)C(O)OC3=O (stereo not drawn) [Salazinic acid]
[1]; [11]
  Pf_72h_%Growth_Rep1: 86.18%
[1]; [12]
  Pf_72h_%Growth_Rep2: 54.69%
[2]; [13]
  Pf_120h_%Growth_Rep1: 77.56%
[2]; [14]
  Pf_120h_%Growth_Rep2: 74.04%
[3]; [15]
  Tg_72h_%Growth_Rep1: 117.03%
[3]; [16]
  Tg_72h_%Growth_Rep2: 97.23%

## COc1cc2c(oc(=O)c3cc(C)cc(OC)c32)c2c([C@H]3O[C@@H]([C@@H](C)O)[C@H](O)[C@H]3O)ccc(O)c12 [BIA-G1034]
[1]; P. falciparum 3D7, 72 h, library screen at 2 μg/mL, % growth, replicate 1
  Pf_72h_%Growth_Rep1: 90.69%
[1]; P. falciparum 3D7, 72 h, library screen at 2 μg/mL, % growth, replicate 2
  Pf_72h_%Growth_Rep2: 120.87%
[2]; P. falciparum 3D7, 120 h, library screen at 2 μg/mL, % growth, replicate 1
  Pf_120h_%Growth_Rep1: 90.16%
[2]; P. falciparum 3D7, 120 h, library screen at 2 μg/mL, % growth, replicate 2
  Pf_120h_%Growth_Rep2: 122.56%
[3]; T. gondii RH, library screen at 2 μg/mL, % growth, replicate 1
  Tg_72h_%Growth_Rep1: 123.33%
[3]; T. gondii RH, library screen at 2 μg/mL, % growth, replicate 2
  Tg_72h_%Growth_Rep2: 101.31%

## CC(=O)O[C@H]1CCC2(C)C3=C(CCC2C1(C)C)[C@@]1(C)CC[C@@H](C(C)CCC=C(C)C)[C@]1(C)CC3 (stereo partly drawn) [Euphol acetate]
[1]; [5]
  Pf_72h_%Growth_Rep1: 66.07%
[1]; [6]
  Pf_72h_%Growth_Rep2: 91.20%
[2]; [7]
  Pf_120h_%Growth_Rep1: 60.77%
[2]; [8]
  Pf_120h_%Growth_Rep2: 92.36%
[3]; [9]
  Tg_72h_%Growth_Rep1: 114.80%
[3]; [10]
  Tg_72h_%Growth_Rep2: 105.35%

## O=C1N[C@@H](Cc2c[nH]c3ccccc23)C(=O)N[C@H]1Cc1c[nH]c2ccccc12 [Cyclo(L-Trp-L-Trp)]
[1]; P. falciparum, 72 h, screen at 2 μg/mL, replicate 1
  Pf_72h_%Growth_Rep1: 85.34%
[1]; P. falciparum, 72 h, screen at 2 μg/mL, replicate 2
  Pf_72h_%Growth_Rep2: 84.68%
[2]; P. falciparum, 120 h, screen at 2 μg/mL, replicate 1
  Pf_120h_%Growth_Rep1: 96.17%
[2]; P. falciparum, 120 h, screen at 2 μg/mL, replicate 2
  Pf_120h_%Growth_Rep2: 91.69%
[3]; T. gondii, screen at 2 μg/mL, replicate 1
  Tg_72h_%Growth_Rep1: 161.12%
[3]; T. gondii, screen at 2 μg/mL, replicate 2
  Tg_72h_%Growth_Rep2: 99.00%
